In patent US20170049739A1, “PROSTACYCLIN COMPOUNDS, COMPOSITIONS AND METHODS OF USE THEREOF” (INSMED INCORPORATED, priority 2013, published 2017):
Entries after “also recorded” stand apart in the source; their conditions may differ.

Tests used:
esterase = assay: Esterase mediated conversion of treprostinil compounds to treprostinil; assay type: in vitro ADME; conditions: 37° C., up to 1 hr
Protocol: A set of studies was conducted to determine the conversion kinetics to treprostinil of linear treprostinil compounds versus various branched treprostinil compounds. 0.4 mM of linear C8-TR or branched treprostinil compounds 2-dimethyl-1-propanyl-TR, 3,3-dimethyl-1-butanyl-TR, 2-ethyl-1-butanyl-TR, 5-nonanyl-TR, or 3-pentanyl-TR (see below for structures) were incubated with 0.2 U esterase at 37° C. for 1 hour, and the conversion (% of total) was calculated at 0.25, 0.5, 0.75, or 1 hour incubation time. • C8-TR (i.e., the compound of Formula (A) wherein R2=
The conversion is relative to the C8-TR compound and conversion was measured at 1 hr. post esterase incubation, • C8-TR (i.e., the compound of Formula (A) wherein R2=
Conversion was measured at 1 hr. post esterase incubation. • 4C7-TR (i.e., the compound of Formula (A) wherein R2=

EP2 prostanoid receptor = target: T1, EP2 prostanoid receptor (Homo sapiens, UniProt P43116); assay: GloSensor cAMP assay in CHO-K1 cells co-transfected with the EP2 receptor; assay type: cell-based
T1 construct: host or cells: CHO-K1 cells, transiently co-transfected with pGloSensor-22F cAMP plasmid and pGEM-3Zf(+)
T1 sequence (P43116 whole entry): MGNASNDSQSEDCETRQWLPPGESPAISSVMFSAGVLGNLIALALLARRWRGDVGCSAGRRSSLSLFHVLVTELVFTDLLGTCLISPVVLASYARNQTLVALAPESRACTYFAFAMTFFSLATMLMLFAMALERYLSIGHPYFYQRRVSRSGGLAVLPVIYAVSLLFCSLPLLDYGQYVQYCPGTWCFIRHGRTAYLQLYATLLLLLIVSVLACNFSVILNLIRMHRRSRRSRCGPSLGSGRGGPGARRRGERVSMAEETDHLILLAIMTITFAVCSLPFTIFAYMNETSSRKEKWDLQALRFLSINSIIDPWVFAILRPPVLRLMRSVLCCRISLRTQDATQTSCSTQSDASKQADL
Description: cAMP is a second messenger involved in signal transduction of G-protein coupled receptors (GPCRs) acting through Ga-s and Ga-i proteins. Because the treprostinil receptor is a GPCR, the assay provides an indication of whether the respective prostacyclin compound (or metabolite thereof) binds its receptor and activates the GPCR cell signaling cascade. The GloSensorTM assay harnesses a genetically modified form of firefly luciferase into which a cAMP-binding protein moiety has been inserted. Upon binding of cAMP, a conformational change is induced leading to increased light output. The EP2 prostanoid receptor was co-transfected with the GloSensorTM plasmid (Promega) into CHG-K1 cells as follows. CHO-K1 cells were harvested when the monoloayer was at 50-90% confluence. First, cells were washed with 5 mL PBS. […] The media was aspirated, and the cell pellet was resuspended in 10 mL of growth media. Cell number was determined using a hemacytometer. Each well of a culture treated 96 […] bottom plate (Costar, Cat #: 3917) was seeded with 1×10^4 cells per 100 μL antibiotic-free growth media. […] For small scale transfections of up to 20 wells, the pGLoSensor-22F cAMP plasmid (Promega, Cat #: E2301) (2 μg): (EP2) (10 ng) (Origene, Cat #: SC126558) : pGEM-3Zf(+) (10 ng) (Promega, Cat #: P2271) ratio was diluted to a final concentration of 12.6 ng/μL (total plasmid) in Opti-MEM I reduced-serum medium (Life Technologies, Cat #: 1985062). Next, 6 μL of FuGENE HD transfection reagent (Promega, Cat #: E2311) was added to 160 μL of diluted plasmid and mixed carefully by gentle pipetting. The complex was incubated at room temperature for 0 to 10 minutes, and then 8 μL of the complex was added per well of a 96 well white assay plate (Costar, Cat #: 3917) and gently mixed without disturbing the cell monolayer. […] Following incubation, cells were treated and analyzed. For larger scale transfections, the aforementioned steps were scaled up accordingly, and cells were frozen following the last incubation. In order to prepare frozen transfected CHO-K1 cells, the media was aspirated from culture flasks and cells were rinsed with 5 mL PBS. […] Cell number was determined using a hemacytometer. The media was aspirated, and the cell pellet was resuspended in freezing media (Millipore, cat #: S-002-5F) at 2.5×10^6 cells/vial. Transfected cells were incubated overnight at -80° C. before transfer to liquid nitrogen for long term storage. […] In preparation for cAMP measurement, the cells were equilibrated with the GloSensor cAMP reagent prior to treatment. For equilibration, the medium was carefully removed from the individual well. Next, 100 μL of equilibration medium (6% v/v of Glosensor Reagent stock solution (Promega, Cat #: E291), 10% FBS (Hyclone, Cat #: SH30071.03) and 88% CO2 independent medium (Life Technologies, Cat #: 18045088)) was added per well of the 96-well plate, and added to the side of each well. The plate was then incubated for 2 hours at room temperature. A first pre-read measurement was taken using a microplate reader (MicroLumat Plus). Plates were incubated for an additional 10 minutes at room temperature, followed by a second pre-read measurement. […] Following treatment, each plate was read every 5 minutes for the duration of the assay using a microplate reader (MicroLumat Plus). In order to determine the fold change in cAMP relative to the control, the transfection efficiency was first determined by dividing the second pre-read measurement by the average of the corresponding pre-read measurements. Next, the normalized relative light units (RLUs) of the samples were determined by dividing the plate read measurement by the transfection efficiency. The fold change in cAMP relative to the control was then determined by dividing the normalized RLU of the samples by the normalized RLU of the control. […] Results from the three highest concentrations are provided at FIG. 3A (10 μM), FIG. 3B (1 μM) and FIG. 3C (0.1 μM). […]

CHO-K1 cells = assay: CHO-K1 cell proliferation assay; conditions: unformulated alkyl esters, 48 hour incubation; for Effect on cell proliferation: concentration with detectable inhibition: 0.195 μM-25 μM
Protocol: CHG-K1 cells were harvested when the cell monolayer was 50-90% confluent (use passage 4-11). Media was aspirated out of the flask, and cells were rinsed with 2 mL of F12 media. Next, 1 mL of pre-warmed (37° C.) 0.25%o trypsin-EDTA (Life Technologies, Cat#: 25300054) was added, and cells were dislodged from the flask by tapping it on the side. Complete growth media (F12 (Life Technologies, Cat #: 31765092) +10%FBS (Hyclone, Cat #: SH30071.03)+1× Pen-Strep (Life Technologies, cat #15140-122) was then added at a volume of 10 mL. Cells were eentrifuged at 250×g for 5 minutes at room temperature, and the media was aspirated. The cell pellet was resuspended in 10 ml. complete growth media. Cell number was determined using a hemacytometer. Ceils were then seeded at 2000 cells per well of a 96-well plate in 100 μL of complete growth media. The plate was incubated overnight at 37° C. and 5% CO2 in a water-jacketed incubator.
The next day, 80 μL of fresh complete media was added to each well, and CHO—K1 cells were challenged with treprostinil compound and composition treatments. The working solutions were prepared at 10× concentration, and following 2 fold serial dilutions, 20 μL aliquots were added per well to arrive at a final 1× concentration. Following a 48 hour incubation at 37° C. and 5% CO2 in a water-jacketed incubator, the inhibitory effect on cell proliferation was determined. Plates were analyzed using 20 μL of Presto Blue reagent (Life Technologies, cat #: A13262) per well. The reagent was mixed, and plates were incubated for 1 hour at 37° C. and 5% CO2 in a water-jacketed incubator. Plates were read using either a CytoFluor Series 4000 (PerSeptive BioSystems) or Synergy Neo microplate reader (BioTek) with emission λ: 590 nm and excitation λ: 560 nm.
Following a 48 hour incubation period, the inhibitory effect of the treprostinil derivative compositions on cell proliferation was determined.
CHO—K1 cells were challenged with treprostinil alkyl esters, i.e., TR compounds of Formula (A), having the following R2 groups: • C2, C3, C4, C5, C6, C8, C10 or C12 straight chain alkyl, at dosages ranging from 0.098 μM to 25 μM, Following a 48 hour incubation period, the inhibitory effect on cell proliferation was determined.
Following a 72 hour incubation period, the inhibitory effect on cell proliferation was determined. Following a 48 hour incubation period, the inhibitory effect on cell proliferation was determined.
Similarly, CHG-K1 cells were challenged with the treprostinil compositions T612 (R2═C2), T613 (R2═C8) at concentrations ranging from 1.41 μM to 180 μM.

NR8383 cells = assay: NR8383 cell proliferation assay; assay type: cell-based, rat; conditions: unformulated alkyl esters, 72 hour incubation; for Effect on cell proliferation: 0.195 μM-25 μM
Protocol: Rat alveolar NR8383 cells were harvested when the monolayer was 50-90% confluent (use passage 5-11). Because the NR8383 cells include both adherent and non-adherent cells, media was transferred to a 50 mL Falcon tube. To obtain the cells remaining in the flask, 2 mL of plain media was added, and the remaining cells were scraped out of the 75 cm^2 flask with a cell scraper and added to the 50 mL tube. […] SH30071.03) […] Technologies, cat #: 15410-122)). Cell number was determined using a hemacytometer. […] Measurements and calculations were made as described above for the CHO-K1 cells.

[1] = Particle size characterization of treprostinil compositions (QELS); assay type: physicochemical; conditions: particles of compositions comprising the alkyl ester (FIG. 2)
Protocol: All particle size measurements were performed using a Wyatt Technology Mobius™ Zeta Potential/ Particle Sizing Instrument in Quasi-elastic light scattering (QELS) mode. Composition aiiquots were diluted 10-fold in pre-filtered (0.02 μm pore filter) ultrapure of deionized H2O. Light scattering data was collected and converted into particle size and size distribution using Dynamics® v. […] Reported average particle size diameter is based on the cumulants model, which mathematically fits particle diffusion constants (determined by the raw scattering intensities of particles in a suspension) to obtain the particle size mean and a distribution of particle sizes around the mean diameter.
Particle uniformity was determined using the software-calculated polydispersity (% PD). Polydispersity is defined as the standard deviation of the particle size distribution from the mean particle size value. % PD normalizes the polydispersity to the mean diameter by dividing by the mean size and multiplylng by 100. These parameters indicate whether a particle suspension has one or more size populations of particles (monomodal versus multimodal). […]
Dynamics® polydispersity parameter represents a monodisperse population of particles if % PD≦15. A calculated % PD≧57% represents a polydisperse population of particles.

Compound	esterase mediated conversion rate compared with other compounds (esterase)	Effect on cell proliferation: concentration with detectable inhibition (CHO-K1 cells)	Effect on cell proliferation (NR8383 cells)	also measured
CCCCC[C@H](O)CC[C@@H]1[C@H]2Cc3cccc(OCC(=O)OC(CCC)CCC)c3C[C@H]2C[C@H]1O [4C7-TR]	slower conversion rate than the linear compound C8-TR			
CCCCCC(O)CCC1C(O)CC2Cc3c(cccc3OCC(=O)OC(CCC)CCCC)CC21 (stereo not shown) [4C8-TR]	slower conversion rate than the linear compound C8-TR; also recorded: slower conversion rate than the symmetrical compounds			
CCCCC[C@H](O)CC[C@@H]1[C@H]2Cc3cccc(OCC(=O)OC(CCCC)CCCC)c3C[C@H]2C[C@H]1O [5C9-TR, 5-nonanyl treprostinil]	slower conversion rate than the linear compound C8-TR			esterase mediated conversion rate compared with other compounds (esterase; listed as 5-nonanyl-TR): slower conversion rate than linear C8-TR; change of potency with incubation time / release profile (EP2 prostanoid receptor; dose response curves at 0.5 to 8 hr incubation): increases with incubation time; also recorded: delayed release profile; ranking of activity of the treprostinil compounds (EP2 prostanoid receptor; unformulated compounds, 10 μM and 5 μM, FIG. 21): C12-TR>C14-TR>5-nonanyl-TR>C16-TR
CCCCCC[C@@H](C)OC(=O)COc1cccc2c1C[C@H]1C[C@@H](O)[C@H](CC[C@@H](O)CCCCC)[C@H]1C2 [(R)-2C8-TR]	no significant difference between the conversion rates of R and S isomers			
CCCCCC[C@H](C)OC(=O)COc1cccc2c1C[C@H]1C[C@@H](O)[C@H](CC[C@@H](O)CCCCC)[C@H]1C2 [(S)-2C8-TR]	no significant difference between the conversion rates of R and S isomers			
CCCCC[C@H](O)CC[C@@H]1[C@H]2Cc3cccc(OCC(=O)OCC)c3C[C@H]2C[C@H]1O [C2-TR, treprostinil ethyl ester]		No detectable cell inhibition	No detectable cell inhibition	
CCCCC[C@H](O)CC[C@@H]1[C@H]2Cc3cccc(OCC(=O)OCCC)c3C[C@H]2C[C@H]1O [C3-TR]		No detectable cell inhibition	No detectable cell inhibition	
CCCCC[C@H](O)CC[C@@H]1[C@H]2Cc3cccc(OCC(=O)OCCCC)c3C[C@H]2C[C@H]1O [C4-TR]		No detectable cell inhibition	No detectable cell inhibition	
CCCCCCOC(=O)COc1cccc2c1C[C@H]1C[C@@H](O)[C@H](CC[C@@H](O)CCCCC)[C@H]1C2 [C6-TR]		No detectable cell inhibition	No detectable cell inhibition	
CCCCCCCCOC(=O)COc1cccc2c1C[C@H]1C[C@@H](O)[C@H](CC[C@@H](O)CCCCC)[C@H]1C2 [C8-TR, treprostinil octyl ester]		25 µM		inhibition of cell proliferation at the highest concentration (CHO-K1 cells): showed inhibition of cell proliferation; inhibition of cell proliferation at the highest concentration (NR8383 cells): showed some inhibition of cell proliferation
treprostinil decyl ester [C10-TR]				polydispersity (% PD) [1]: around 15 % PD; duration of cAMP levels (EP2 prostanoid receptor; 5 μM, FIG. 4 and FIG. 5): sustained significantly longer than free treprostinil; cAMP levels compared with free treprostinil (EP2 prostanoid receptor; 10 μM, FIG. 3A): equivalent to free treprostinil; time for which cAMP level was sustained (EP2 prostanoid receptor; 10 μM, FIG. 3A): at least 6 hours; cAMP response compared with free treprostinil (EP2 prostanoid receptor; compositions, 5 μM, FIG. 4): greater than or equivalent to the response induced by free treprostinil; cAMP response levels of unformulated compounds (EP2 prostanoid receptor; unformulated alkyl esters, 5 μM, FIG. 5): equivalent to free treprostinil
